Results: patent US8815923B2, “Therapeutic compounds” (Allergan, Inc., priority 2007, dated 2014)

Columns and labels:
Format in all cases: cell-based
alpha2B receptor = target: T1, alpha2B receptor (Homo sapiens, UniProt P18089); test: RSAT assay, Alpha 2B; details: for EC50: RSAT, transfected NIH-3T3 cells with Gq/i5, nd = not determinable at concentrations less than 10 micromolar; for Emax: read-out: Alpha 2B IA (intrinsic activity), in parentheses
T1 construct: expressed in transfected cells; host or cells: NIH-3T3
T1 sequence (P18089 1-450): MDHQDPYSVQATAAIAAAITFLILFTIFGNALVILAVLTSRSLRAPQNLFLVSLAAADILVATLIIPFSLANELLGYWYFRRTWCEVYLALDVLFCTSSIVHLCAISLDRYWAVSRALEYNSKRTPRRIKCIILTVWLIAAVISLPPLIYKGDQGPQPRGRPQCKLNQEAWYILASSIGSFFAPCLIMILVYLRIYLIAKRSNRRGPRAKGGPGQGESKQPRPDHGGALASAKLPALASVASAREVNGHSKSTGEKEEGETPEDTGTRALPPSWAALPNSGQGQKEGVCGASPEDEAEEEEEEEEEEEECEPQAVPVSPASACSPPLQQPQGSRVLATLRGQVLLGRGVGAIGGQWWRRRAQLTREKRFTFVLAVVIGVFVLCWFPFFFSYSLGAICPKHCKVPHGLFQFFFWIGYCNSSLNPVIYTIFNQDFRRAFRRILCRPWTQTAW
Protocol: (§1) Receptor Selection and Amplification Technology (RSAT) Assay
(§2) The RSAT assay measures a receptor-mediated loss of contact inhibition that results in selective proliferation of receptor-containing cells in a mixed population of confluent cells. The increase in cell number is assessed with an appropriate transfected marker gene such as β-galactosidase, the activity of which can be easily measured in a 96-well format. Receptors that activate the G protein, Gq, elicit this response. Alpha2 receptors, which normally couple to Gi, activate the RSAT response when coexpressed with a hybrid Gq protein that has a Gi receptor recognition domain, called Gq/i5.
(§3) NIH-3T3 cells are plated at a density of 2×10^6 cells in 15 cm dishes and maintained in Dulbecco's modified Eagle's medium supplemented with 10% calf serum. One day later, cells are cotransfected by calcium phosphate precipitation with mammalian expression plasmids encoding p-SV-β-galactosidase (5-10 μg), receptor (1-2 μg) and G protein (1-2 μg). 40 μg salmon sperm DNA may also be included in the transfection mixture. Fresh media is added on the following day and 1-2 days later, cells are harvested and frozen in 50 assay aliquots. Cells are thawed and 100 μl added to 100 μl aliquots of various concentrations of drugs in triplicate in 96-well dishes. Incubations continue 72-96 hr at 37° C. After washing with phosphate-buffered saline, β-galactosidase enzyme activity is determined by adding 200 μl of the chromogenic substrate (consisting of 3.5 mM o-nitrophenyl-β-D-galactopyranoside and 0.5% nonidet P-40 in phosphate buffered saline), incubating overnight at 30° C. and measuring optical density at 420 nm. The absorbance is a measure of enzyme activity, which depends on cell number and reflects a receptor-mediated cell proliferation. The efficacy or intrinsic activity is calculated as a ratio of the maximal effect of the drug to the maximal effect of a standard full agonist for each receptor subtype. Brimonidine, also called UK14304, the chemical structure of which is shown below, is used as the standard agonist for the alpha2A, alpha2B and alpha2C receptors. The EC50 is the concentration at which the drug effect is half of its maximal effect.
(§4) EC50 values are nanomolar. ND stands for “not determinable” at concentrations less than 10 micromolar. IA stands for “intrinsic activity.”

alpha2C receptor = target: T2, alpha2C receptor (Homo sapiens, UniProt P18825); test: RSAT assay, Alpha 2C; details: for EC50: RSAT, transfected NIH-3T3 cells with Gq/i5, nd = not determinable at concentrations less than 10 micromolar; for Emax: read-out: Alpha 2C IA (intrinsic activity), in parentheses
T2 construct: expressed in transfected cells; host or cells: NIH-3T3
T2 sequence (P18825 1-462): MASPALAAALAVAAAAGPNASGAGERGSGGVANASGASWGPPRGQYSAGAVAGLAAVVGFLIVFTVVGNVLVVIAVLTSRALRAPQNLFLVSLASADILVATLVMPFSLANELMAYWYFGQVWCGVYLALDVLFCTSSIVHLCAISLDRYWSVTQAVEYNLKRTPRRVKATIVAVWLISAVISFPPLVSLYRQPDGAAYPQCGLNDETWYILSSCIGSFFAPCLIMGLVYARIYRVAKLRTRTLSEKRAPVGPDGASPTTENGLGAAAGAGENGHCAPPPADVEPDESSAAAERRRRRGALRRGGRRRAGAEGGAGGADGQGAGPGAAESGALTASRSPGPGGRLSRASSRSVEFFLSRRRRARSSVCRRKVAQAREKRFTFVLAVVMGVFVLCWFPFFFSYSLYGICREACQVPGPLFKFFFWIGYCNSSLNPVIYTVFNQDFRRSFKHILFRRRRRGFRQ
Protocol: as §1, §2, §3, §4

alpha2A receptor = target: T3, alpha2A receptor (Homo sapiens, UniProt P08913); test: RSAT assay, Alpha 2A; details: for Emax: read-out: Alpha 2A IA (intrinsic activity), in parentheses
T3 construct: expressed in transfected cells; host or cells: NIH-3T3
T3 sequence (P08913 1-465): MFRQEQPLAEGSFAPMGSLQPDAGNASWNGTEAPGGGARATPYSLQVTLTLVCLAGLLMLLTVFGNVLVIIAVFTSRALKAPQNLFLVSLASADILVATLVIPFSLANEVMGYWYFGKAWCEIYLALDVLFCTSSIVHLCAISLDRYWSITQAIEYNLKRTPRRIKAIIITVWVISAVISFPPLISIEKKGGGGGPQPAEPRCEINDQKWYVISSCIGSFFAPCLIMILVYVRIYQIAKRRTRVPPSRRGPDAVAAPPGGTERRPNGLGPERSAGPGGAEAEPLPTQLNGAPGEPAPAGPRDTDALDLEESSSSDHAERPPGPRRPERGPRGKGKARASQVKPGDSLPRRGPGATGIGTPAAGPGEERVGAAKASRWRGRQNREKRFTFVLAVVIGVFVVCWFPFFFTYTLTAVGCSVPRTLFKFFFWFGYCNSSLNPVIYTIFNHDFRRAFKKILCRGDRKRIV
Protocol: as §1, §2, §3, §4

c1ccc2c(c1)CCC[C@@H]2NC1=NCCN1 [compound 323]
EC50 (alpha2B receptor): 49 nM
Emax (alpha2B receptor): 102%
EC50 (alpha2C receptor): 308 nM
Emax (alpha2C receptor): 42%
Emax (alpha2A receptor): 12%

c1ccc2c(c1)CCCC2NC1=NCCN1 (stereo not drawn) [compound 639, (4,5-Dihydro-1H-imidazol-2-yl)-(1,2,3,4-tetrahydro-naphthalen-1-yl)amine]
EC50 (alpha2B receptor): 37 nM
Emax (alpha2B receptor): 84%
EC50 (alpha2C receptor): 179 nM
Emax (alpha2C receptor): 50%
Emax (alpha2A receptor): 25%

Cc1cc(C)c2c(c1)C(NC1=NCCN1)CCC2 (stereo not drawn) [compound 904, (4,5-Dihydro-1H-imidazol-2-yl)-(5,7-dimethyl-1,2,3,4-tetrahydro-naphthalen-1-yl)-amine]
EC50 (alpha2B receptor): 68 nM
Emax (alpha2B receptor): 80%
Emax (alpha2C receptor): 4%
EC50 (alpha2A receptor; RSAT, transfected NIH-3T3 cells with Gq/i5, nd = not determinable at concentrations less than 10 micromolar): 1620 nM
Emax (alpha2A receptor): 35%
